What was measured:
Assay type in all cases: in vivo, mouse
IL-6 = assay: Serum IL-6 production in mice after single s.c. injection (7TD1 bioassay); conditions: serum 4 h post injection
Method: Description of Biological Assays Interleukin 6(IL-6) assay for structure function analysis--Test compounds are dissolved in water and administered subcutaneously in 0.2 ml to deliver a dose of 0.1-10 mg/kg. The less soluble compounds are first dissolved in 100% ethanol and then brought to the appropriate concentration in water. Four hours post injection, the mice are bled and the serum is retrieved. The IL-6 dependent cell line 7TDl is used to assay serial dilutions of sera for IL-6 content. 7TDl cells (1×10^4) are placed in microtiter wells and incubated at 37° C. for 72 hours with standard recombinant mouse IL-6 or with dilutions of serum to be tested. Over the last 6 hours, the cells are pulsed with ^3 H-Tdr (μci). Cells are then harvested and the degree of proliferation determined by the uptake of ^3 H-Tdr as measured by liquid scintillation spectrometry. The concentration of IL-6 in serum is calculated from standard curves utilizing recombinant IL-6 from R&D Systems Inc. and are reported in units of IL-6 activity as defined by the manufacturer.

CSF = assay: Serum colony stimulating factor (CSF) assay in mice; conditions: serum 4 hours after injection
Method: Colony forming assays Granulocyte-Macrophage (CFU-GM)--Mice are treated with 150 mg/kg of 5-Fu and treatment with test compound begins 24 hrs. later. On consecutive days, mice are killed by cervical dislocation and the femurs removed under sterile conditions. Femurs are flushed with 1 ml of ice cold medium (Iscove's supplemented with 20% FCS, 1% penicillin-streptomycin, 1% glutamine and 5×10^-5 M 2-mercaptoethanol). Bone marrow cells (5×10^5) are then plated in 12×75 mm tissue culture plates in 3 ml of warm ararose (3%) in Iscove's medium with 100 Units/ml of recombinant mouse GM-CSF purchased from Genzyme (Boston, Mass.). Plates are incubated for 7 days at 37° C. in 5% CO2. After 7 days, colonies of 50 cells or greater are enumerated under a dissecting microscope.
Bone marrow cells are prepared as described above for the CFU-GM assay. The cells are then incubated in soft agar with an 0.3% final concentration of serum taken from mice 4 hours after injection with test compounds. After 7 days of incubation at 37° C., the number of colony forming (CFU) cells per 10^5 plated bone marrow cells is determined by counting colonies of more than 50 cells under a dissecting microscope. The data are reported as CFU/10^5 bone marrow cells.

neutrophils [1] = assay: Neutrophil recovery in 5-FU treated mice; conditions: mouse, in vivo
Method: Circulating Neutrophil Assay--Mice are treated with 5-FU (150 mg/kg) and beginning 24 hrs. later, treated daily with the test compound. Mice are bled daily by retroorbital puncture in heparinized capillary tubes. Circulating WBC counts are determined by Coulter counter. Blood smears are stained with Wright-Geimsa solution and the percentage circulating neutrophils determined by differential counting under a microscope.
5-Fluorouracil (5-FU) Induced Neutropenia In Mice--Mice are treated ip with 150 mg/kg of the chemotherapy agent 5-FU which induces a severe loss of neutrophils in the peripheral blood 5-6 days later. Twenty-four hrs. after the dose, treatment with the test compounds is initiated. The effect of the test compounds on recovery of neutrophil progenitor cells in the bone marrow is determined by the CFU-GM assay. The recovery of circulating neutrophils is followed by differential staining of the peripheral blood.
*Data from 10 mice/group on day 7 post treatment with 150 mg/kg of 5FU.
Beginning 24 hrs. after 5FU dose, mice were treated daily with test
compound at concentrations indicated. Neutrophil count for normal mice (n
**Mice treated with 5FU and vehicle only.

neutrophils [2] = assay: Neutrophil recovery in 5-FU treated mice; conditions: day 7 post 5FU, n = 6 mice/group, 0 dose 54 ± 22

| SMILES | IL-6 (IL-6; 0.1 mg/kg s.c.) | IL-6 (IL-6; 1.0 mg/kg s.c.) | IL-6 (IL-6; 10.0 mg/kg s.c.) | CSF production, CFU/100,000 Bone Marrow Cells (CSF; 1.0 mg/kg) | CSF production, CFU/100,000 Bone Marrow Cells (CSF; 10.0 mg/kg) | CSF production, CFU/100,000 Bone Marrow Cells (CSF; 0.1 mg/kg) | neutrophil recovery in 5-FU treated mice (in words) (neutrophils [1]) | Neutrophils/cu. mm. (neutrophils [2]; 1 μg/kg daily) | Neutrophils/cu. mm. (neutrophils [2]; 10 μg/kg daily) | Neutrophils/cu. mm. (neutrophils [2]; 100 μg/kg daily) |
| --- | --- | --- | --- | --- | --- | --- | --- | --- | --- | --- |
| CCCCCCC(=O)N[C@H](C(=O)O)[C@H](C)OC(=O)N[C@@H](CCC[C@@H](N)C(=O)O)C(=O)N[C@H](C)C(=O)O [Example 30, [S-(R*,R*)]-N-(R)-6-carboxy-N^2-[[2-Carboxy-1-methyl-2-[(1-oxoheptyl)amino]ethoxy]carbonyl]-L-lysyl]-D-Alanine] | 328 ± 107 U/ml | – | – | – | – | – | – | – | – | – |
| CCCCCCC(=O)NC(CNC(=O)N[C@@H](CCCC(NC(=O)OC(C)(C)C)C(=O)O)C(=O)N[C@H](C)C(=O)O)C(=O)O (stereo partly shown) [Example 83] | – | 332 ± 38 U/ml | 1818 ± 243 U/ml | 204 ± 9 CFU/100,000 Bone Marrow Cells | 123 ± 22 CFU/100,000 Bone Marrow Cells | – | – | – | – | – |
| CCCCCC1CCC(C(=O)NC(C(=O)O)C(C)OC(=O)N[C@@H](CCC[C@@H](N)C(=O)O)C(=O)N[C@H](C)C(=O)O)CC1 (stereo partly drawn) [Example 33, [(R)-6-Carboxy-N^2-[[2-carboxy-1-methyl-2-[[(4-pentylcyclohexyl)carbonyl]amino]ethoxy]carbonyl]-L-lysyl]-D-Alanine] | 1651 ± 100 U/ml | 3767 ± 457 U/ml | – | – | – | – | – | – | – | – |
| CCCCOc1ccc(CC(=O)NC(C(=O)O)C(C)OC(=O)N[C@@H](CCC[C@@H](N)C(=O)O)C(=O)N[C@H](C)C(=O)O)cc1 (stereo partly drawn) [Example 34, N-[N^2-[[2-[[(4-Butoxyphenyl)acetyl]amino]-2-carboxy-1-methylethoxy]carbonyl]-(R)-6-carboxy-L-lysyl]-D-Alanine] | 3610 ± 347 U/ml | 5063 ± 302 U/ml | – | – | – | – | – | – | – | – |
| CCCCCCC(=O)N[C@H](C(=O)O)[C@@H](C)OC(=O)N[C@@H](CCC[C@@H](N)C(=O)O)C(=O)N[C@H](C)C(=O)O (relative stereo) [Example 31, R-(R*,S*)]-N-(R)-6-carboxy-N^2-[[2-carboxy-1-methyl-2-[(1-oxoheptyl)amino]ethoxy]carbonyl]-L-lysyl]-D-Alanine] | 294 ± 24 U/ml | – | – | – | – | – | – | – | – | – |
| CCCCCCC(=O)NC(CNC(=O)N[C@@H](CCCC(N)C(=O)O)C(=O)N[C@H](C)C(=O)O)C(=O)O (stereo partly shown) [Example 84] | 1963 ± 97 U/ml | 3865 ± 688 U/ml | 2512 ± 209 U/ml | 118 ± 15 CFU/100,000 Bone Marrow Cells | 131 ± 10 CFU/100,000 Bone Marrow Cells | 129 ± 14 CFU/100,000 Bone Marrow Cells | induce neutrophil recovery in 5-FU treated mice | 427 ± 211 /cu. mm. | 570 ± 224 /cu. mm. | 2194 ± 629 /cu. mm. |
| CCCCCCC(=O)NC(CNC(=O)N[C@@H](CCCC(NC(=O)OC(C)(C)C)C(=O)OC)C(=O)N[C@H](C)C(=O)OC)C(=O)O (stereo partly drawn) [Example 81, N-N^2-[[[2-carboxy-2-[(1-oxoheptyl)amino]ethyl]amino]carbonyl]-N^6-[(1,1-dimethylethoxy)carbonyl]-6-(methoxycarbonyl)-L-lysyl-D-alanine methyl ester] | – | 56 ± 19 U/ml | 199 ± 23 U/ml | 69 ± 14 CFU/100,000 Bone Marrow Cells | 101 ± 7 CFU/100,000 Bone Marrow Cells | – | – | – | – | – |
| CCCCCCC(=O)NC(CNC(=O)N[C@@H](CCCC(N)C(=O)OC)C(=O)N[C@H](C)C(=O)OC)C(=O)O (stereo partly shown) [Example 82] | – | 2181 ± 92 U/ml | 3188 ± 345 U/ml | 108 ± 11 CFU/100,000 Bone Marrow Cells | 115 ± 3 CFU/100,000 Bone Marrow Cells | – | – | – | – | – |
| CCCCCCC(=O)NC(CNC(=O)N[C@@H](CCCC(N)C(=O)OC)C(=O)N[C@H](C)C(=O)OC)C(=O)OCc1ccccc1 (stereo partly shown) [Example 80] | – | 1712 ± 168 U/ml | 3624 ± 611 U/ml | 91 ± 3 CFU/100,000 Bone Marrow Cells | 121 ± 9 CFU/100,000 Bone Marrow Cells | – | – | – | – | – |
| CCCCCCC(=O)N[C@@H](C(=O)O)[C@H](C)OC(=O)N[C@@H](CCC[C@@H](N)C(=O)O)C(=O)N[C@H](C)C(=O)O [Example 29, [S-(R*,S*)]-N-[(R)-6-carboxy-N^2-[[2-carboxy-1-methyl-2-[(1-oxoheptyl)amino]ethoxy]carbonyl]-L-lysyl]-D-Alanine] | 0 U/ml | 203 U/ml | 537 U/ml | 101 ± 46 CFU/100,000 Bone Marrow Cells | – | 0 ± 0 CFU/100,000 Bone Marrow Cells | – | – | – | – |

Source: patent publication US5312831A, “Urethanes and ureas that induce cytokine production” (American Cyanamid Company, priority 1993, dated 1994)
